tested on: DU145 cells; assay: DU145 tumour cell survival (MTS cell proliferation assay); type: cell-based, human; details: 20 μM fatty acid, 24 hrs, MTS (FIG. 4)
Experimental: Lx compounds were tested for activity against two androgen insensitive prostate cancer tumour cell lines, DU145(liver metastases) and PC3(brain metastases). […] Survival was measured using the MTS cell proliferation assay.
Various concentrations for varying amounts of time of Lx compounds were added to either DU145 or PC3 tumour cells in culture. Viability/death of tumour cells was measured by a standard colourimetric assay. […] It is also evident from the results (FIG. 2) that the saturated nitro compound Lx1 (19:0-NO2) is not active and neither is MP2 (β-thia 23:0), a saturated […] fatty acid. […] In a further screening test, the human prostate cell line, DU145 cells (liver metastases), was treated for 24 hrs with 20 μM Fatty Acid and cell survival was measured using the MTS cell proliferation assay. This assay uses colourimetric measurement of substrate conversion to formazan which occurs only in the presence of NADH in a metabolically active cell. There was varied anti-tumour activity amongst the different types of PUFA.
DU145 cells were treated with PUFA and incubated for 24 h (for the proliferation assay), 4 h (for the caspase assay) and for 18 h (for PARP cleavage).
Proliferation was quantitated by MTS assay. Caspases 3 and 7 were assayed by a fluorometric assay using a […] substrate. PARP cleavage was measured by Western blots using an anti PARP antibody.

SMILES | DU145 cell survival, screening test
CCC=CCC=CCC=CCC=CCC=CCC=CCCCOCC(=O)O [MP6] | most active
CCCCC/C=C\C/C=C\C/C=C\C/C=C\CCCCSCC(=O)O [MP8, (all-Z)-(eicosa-5,8,11,14-tetraenylthio) acetic acid] | highly active
CCCCC/C=C\C/C=C\C/C=C\CCCCCSCC(=O)O [MP9] | most active
CCC=CCC=CCC=CCCCCCCCCSCC(=O)O [MP10] | most active
CCCCC/C=C\C/C=C\C/C=C\CCCCCSCCC(=O)O [MP12] | most active
CC/C=C\C/C=C\C/C=C\CCCCCCCCSCCC(=O)O [MP13, 3-[(Z,Z,Z)-(octadeca-9,12,15-trienylthio)]propionic acid] | highly active
CC/C=C\C/C=C\C/C=C\C/C=C\C/C=C\C/C=C\CCC(=O)NCC(=O)O [PTS] | some activity

target: T1, 15-LO (Glycine max, UniProt P08170); assay: Effect on 15-LO catalysed oxidation of arachidonic acid; type: biochemical, soybean; details: preliminary experiment; result in words
T1 construct: purchased Sigma Chemical Company
T1 sequence (P08170 1-839): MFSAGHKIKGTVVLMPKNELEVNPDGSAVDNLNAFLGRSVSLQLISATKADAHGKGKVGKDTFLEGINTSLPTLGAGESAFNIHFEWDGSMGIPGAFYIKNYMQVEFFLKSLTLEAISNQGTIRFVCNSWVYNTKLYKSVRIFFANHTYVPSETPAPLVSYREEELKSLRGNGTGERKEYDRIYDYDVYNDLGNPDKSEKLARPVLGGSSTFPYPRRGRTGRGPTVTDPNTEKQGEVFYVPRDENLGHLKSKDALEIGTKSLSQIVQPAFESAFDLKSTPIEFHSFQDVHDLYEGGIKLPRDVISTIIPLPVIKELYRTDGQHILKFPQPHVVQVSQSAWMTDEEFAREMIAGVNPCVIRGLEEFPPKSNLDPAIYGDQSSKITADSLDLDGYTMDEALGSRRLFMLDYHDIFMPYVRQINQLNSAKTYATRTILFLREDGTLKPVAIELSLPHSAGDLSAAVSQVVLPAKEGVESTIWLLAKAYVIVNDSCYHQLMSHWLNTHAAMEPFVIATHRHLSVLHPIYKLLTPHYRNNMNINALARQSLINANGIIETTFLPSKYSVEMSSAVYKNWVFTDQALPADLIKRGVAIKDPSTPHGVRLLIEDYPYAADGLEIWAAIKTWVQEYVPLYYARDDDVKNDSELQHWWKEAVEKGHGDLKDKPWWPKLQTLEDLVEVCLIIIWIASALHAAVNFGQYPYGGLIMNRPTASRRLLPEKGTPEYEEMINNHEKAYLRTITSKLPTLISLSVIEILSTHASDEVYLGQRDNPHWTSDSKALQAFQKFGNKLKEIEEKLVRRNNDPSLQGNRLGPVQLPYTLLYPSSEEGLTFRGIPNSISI

Effect on 15-LO catalysed oxidation of AA | SMILES
Nil | CC/C=C\C/C=C\C/C=C\CCCCCCCC[N+](=O)[O-] [Lx2, (z,z,z)-1-Nitro-9,12,15-octadecatriene]
Nil | CCCCC/C=C\C/C=C\C/C=C\CCCCC[N+](=O)[O-] [Lx3, (z,z,z)-1-Nitro-6,9,12-octadecatriene]
Nil | CC/C=C\C/C=C\C/C=C\C/C=C\C/C=C\C/C=C\CCC[N+](=O)[O-] [Lx5, (all-z)-1-Nitro-4,7,10,13,16,19-docosahexaene]

From US20050222253A1, “Anti-cancer nitro- and thia-fatty acids” (priority 1999, published 2005)
